Experimental data: patent US10947366B2, “Hollow mineral tubes comprising essential oils and uses thereof” (TECHNION RESEARCH & DEVELOPMENT FOUNDATION LTD., priority 2015, dated 2021)
Like-named read-outs stand apart in the source and are kept apart here.

What was measured:
E. coli = assay: Agar diffusion assay (Kirby-Bauer disk diffusion) of LDPE-based films; assay type: cell-based; conditions: dose additivity model
Method: Fresh LDPE/(HNTs/CV-TY), LDPE/(HNTs/CV) and LDPE/TY films (12 mm in diameter and 150 μm thick) were conditioned at 60° C. for different time intervals to accelerate the release of the EOs from the films. The films were sampled after different durations, and the content of the respective EOs were determined by Fourier-transform infrared spectroscopy in transmission mode. Subsequently, the discs were placed onto the surface of a Luria broth (LB) agar plate seeded with 10^8 CFU ml^−1 of E. coli culture (0.1 mL). […] All tests were performed in triplicates, and at least 15 different specimens are studied for each film type of each. Neat LDPE films were used as a negative control.
Interactions between CV and TY were assessed based on the results obtained by the agar diffusion assay studies. Two common models of synergistic activity are applied:
(1) effect additivity (Axelrad, Howard, & McLean, 2002) and (2) dose additivity (Berenbaum, 1978). […] The second model is based on building curves that illustrate various combinations of two antimicrobials that produce the same effect. Antimicrobial doses of the same efficiency are connected by the additivity line that predicts a zero interaction. Deviations from this prediction can be interpreted as antagonism or synergy. […]

E. coli (ATCC 8739) = assay: Chequerboard antimicrobial susceptibility to pure carvacrol, thymol and their combinations; assay type: cell-based; conditions: Escherichia coli, ATCC8739
Method: Bacterial susceptibility to pure carvacrol, thymol and their mixtures was characterized by the standard chequerboard procedure for antimicrobial susceptibility for combination of antimicrobials (Franzot & Casadevall, 1997; Pei, Zhou, Ji, & Xu, 2009).
Accordingly, in exemplary procedures, stock aqueous emulsions of thymol and carvacrol (at a concentration of 6400 mg L^−1 in MillyQ water, […]) are prepared by ultrasonication (Vibra cell VCX 750, Sonics & Materials Inc., USA) for 3 min at a constant amplitude of 40%, on ice bath using small amounts of Tween-80. […] The plate is sealed with SealPlate® (Excel Scientific Inc., Victorville, CV, US) incubated at 37° C. for 4 h under gentle shacking in a microplate reader (Varioskan Flash, Thermo Scientific, USA). Absorbance measurements are recorded at 600 nm every 3 min. […]
The MIC of carvacrol and thymol and their combination against E. coli (ATCC 8739) were determined using the standard chequerboard procedure for antimicrobial susceptibility for combination of antimicrobials (Franzot & Casadevall, 1997; Pei et al., 2009).
FIG. 13A presents characteristic E. coli growth curves in media containing a constant thymol concentration (75 mg L^−1) and varying carvacrol concentrations (0 to 200 mg L^−1). […] While at a lower concentration (100 mg L^−1), a profound lag time of ˜200 min in bacterial growth is recorded. […]

[1] = Thermal gravimetric analysis (TGA) of EOs and HNTs/EO hybrids, thermal stability; assay type: physicochemical; conditions: 20° C./min, nitrogen
Method: (§1) Hybrids were characterized by thermal gravimetric analysis (TGA) using TGA-Q5000 system (TA instruments, USA) at a heating rate of 20° C./min under nitrogen atmosphere, starting at room temperature up to 600° C.
Thermal gravimetric analysis (TGA) is performed using TGA-Q5000 system (TA Instruments, USA). Samples are heated under nitrogen atmosphere from room temperature to 600° C. at a heating rate of 20° C. min^−1. The results are analyzed using Universal […] version 4.5A build 4.5.0.5 software.

[2] = EO content in films after melt compounding and processing, determined by TGA; assay type: physicochemical; conditions: pure EO in LDPE film without HNTs, initial 4 %
Method: as §1
Table 4 below summarizes the carvacrol and HNTs content in different films (following melt compounding and processing) determined by TGA (initial carvacrol content, pre-processing, was 4 wt % and initial HNTs content was 2 wt %).
The resulting films were studied by thermal gravimetric analysis (TGA) in order to examine the effect of the HNTs carriers on the residual carvacrol content following the harsh high-temperature melt-compounding and processing of PA. Table 5 summarizes the results of these experiments showing carvacrol content in different carvacrol-containing films, determined by TGA.
The EOs content and distribution within the LDPE matrix are important parameters, crucial in determining the mechanical and antimicrobial performance of the nanocomposite systems (R. Shemesh et al., 2015). Thus, the total volatile content within the LDPE-based films was investigated using TGA, and the results are summarized in Table 14 showing carvacrol and thymol concentrations in different LDPE-based films as determined by TGA and FTIR spectroscopy.

[3] = at 20° C.-25° C.; cited from earlier work

Row | Compound | in-film EO concentration giving 19 mm inhibition zone (E. coli) | MIC (E. coli (ATCC 8739)) | temperature at which weight loss (evaporation) of the EO is completed [1] | reduction of EO concentration during high-temperature processing [2] | vapor pressure [3] | MIC (E. coli (ATCC 8739); LB medium, 37° C., 4 h, inhibition = lag time above 200 min, read-out: MIC)
1 | Cc1ccc(C(C)C)cc1O [carvacrol, Carvacrol] | 1.5% | 200 µg/mL | about 165 °C | 55% | 0.023 mmHg | 
2 | CC(C)=CCCC(C)=CC=O [citral, Citral] |  |  |  |  | 0.22 mmHg | 
3 | C=CC(C)(O)CCC=C(C)C (centres unmarked) [linalool, Linalool] |  |  |  |  | 0.17 mmHg | 
4 | Cc1ccc(C(C)C)c(O)c1 [thymol, Thymol] | 1.4% |  |  | 35% | 0.002 mmHg | 300 µg/mL
